Data reported in the supplement of paper PMC3974653.
Counter-ions that a name gives are not always drawn. One block for each molecule: values may come before it.

System: MTT (mouse pheochromocytoma)
Assay: IC50 of cell viability (ATP content)
Details: (24 or 48 h)
Summary of the method: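 The IC50 was fitted with a four-parameter logistic equation to normalised CellTiter-Glo ATP luminescence from MTT mouse pheochromocytoma cells. These cells, in white 1536-well plates, had been treated for 24 or 48 hrs with library compounds at 8 final concentrations between 0.5 nM and 46 µM, and luminescence was read after 15 minutes. Positive-control wells served as 100% and DMSO wells as 0%.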

Compound: COc1ccc(C2C(=O)c3ccccc3C2=O)cc1 [ANISINDIONE]
- IC50 of cell viability: > 46 µM

Compound: Clc1cccc(SC2CCNCC2)n1 [ANPIRTOLINE]
- IC50 of cell viability: > 46 µM

Compound: [S]=[Sb+]([S-])[S][Sb+](=[S])[S-] [ANTIMONY PENTASULFIDE]
- IC50 of cell viability: > 46 µM

Compound: CCN(CC)CCOC(=O)C(C)(c1ccccc1)c1ccccc1 [APROFENUM]
- IC50 of cell viability: > 46 µM

Compound: N=C(N)NCCCCNC(=N)N.O=[S+]([O-])(O)O [ARCAINE SULFATE]
- IC50 of cell viability: > 46 µM

Compound: COC(=O)\C1=C\CCN(C)C1 [ARECOLINE]
- IC50 of cell viability: > 46 µM

Compound: COc1ccc(CC(C)NCC(O)c2ccc(O)c(NC=O)c2)cc1 (stereo not given) [ARFORMOTEROL TARTRATE]
- IC50 of cell viability: > 46 µM

Compound: CC(C)(C)NC[C@H](O)CSc1nc(-c2ccc(C(N)=O)s2)cs1 [AROTINOLOL HYDROCHLORIDE]
- IC50 of cell viability: > 46 µM

Compound: CN1[C@@H]2CC[C@@H]1CC(OC(=O)[C@H](CO)c1ccccc1)C2 (stereo not given in full) [ATROPINE]
- IC50 of cell viability: > 46 µM

Compound: CCC(C)C1O[C@]2(C=CC1C)CC1CC(C/C=C(\C)[C@H](OC3CC(OC)C(O[C@H]4CC(OC)[C@@H](O)C(C)O4)C(C)O3)[C@@H](C)/C=C/C=C3\COC4C(O)C(C)=C[C@H](C(=O)O1)[C@@]34O)O2 (stereo not given in full) [AVERMECTIN B1]
- IC50 of cell viability: > 46 µM

Compound: CC[C@H](C)[C@H](NC(=O)[C@H](CO)NC(=O)[C@H](CC(N)=O)NC(=O)[C@H](CC(C)C)NC(=O)[C@H](Cc1ccc(O)cc1)NC(=O)[C@H](CCCCN)NC(=O)[C@H](CCCCN)NC(=O)[C@@H](NC(=O)[C@H](C)NC(=O)[C@H](CCSC)NC(=O)[C@H](CCC(N)=O)NC(=O)[C@H](CCCCN)NC(=O)[C@H](CCCNC(=N)N)NC(=O)[C@H](CC(C)C)NC(=O)[C@H](CCCNC(=N)N)NC(=O)[C@@H](NC(=O)[C@H](Cc1ccc(O)cc1)NC(=O)[C@H](CC(N)=O)NC(=O)[C@H](CC(=O)O)NC(=O)[C@@H](NC(=O)[C@H](Cc1ccccc1)NC(=O)[C@@H](NC(=O)[C@H](C)NC(=O)[C@H](CC(=O)O)NC(=O)[C@H](CO)NC(=O)[C@@H](N)Cc1c[nH]cn1)C(C)C)[C@@H](C)O)[C@@H](C)O)C(C)C)C(=O)N[C@@H](CC(C)C)C(=O)N[C@@H](CC(N)=O)C(=O)O [AVIPTADIL]
- IC50 of cell viability: > 46 µM

Compound: COc1ccc(C(=O)CC(=O)c2ccc(C(C)(C)C)cc2)cc1 [AVOBENZONE]
- IC50 of cell viability: > 46 µM

Compound: [N-]=[N+]=CC(=O)OCC(N)C(=O)O (stereo not given) [AZASERINE]
- IC50 of cell viability: > 46 µM

Compound: Cl.CN1CCCC(CC1)N2\N=C(CC3=CC=C(Cl)C=C3)/C4=CC=CC=C4C2=O (stereo not given) [AZELASTINE HYDROCHLORIDE]
- IC50 of cell viability: > 46 µM

Compound: N[S+](=O)([O-])c1cc(-c2nnn[nH]2)c(NCc2cccs2)cc1Cl [AZOSEMIDE]
- IC50 of cell viability: > 46 µM

Compound: CCCC(=O)Nc1ccc(OC[C@@H](O)CNC(C)C)c(C(C)=O)c1 [Acebutolol hydrochloride]
- IC50 of cell viability: > 46 µM

Compound: CC(=O)C[C@H](C1=CC=C(C=C1)[N+]([O-])=O)\C2=C(/O)C3=C(OC2=O)C=CC=C3 [Acenocoumarol]
- IC50 of cell viability: > 46 µM

Compound: CC/1=C/C(=O)[N-][S](=O)(=O)O1 [Acesulfame K]
- IC50 of cell viability: > 46 µM

Compound: CCOC(C)OCC [Acetal (Acetaldehyde diethyl acetal)]
- IC50 of cell viability: > 46 µM

Compound: CN(C)C(=O)CNC(=O)Cc1ccccc1 [Acetamide, N,N-dimethyl-2-(2-phenylacetamido)-]
- IC50 of cell viability: > 46 µM

Compound: CC(=O)Nc1ccc(O)cc1 [Acetaminophen (4-hydroxyacetanilide)]
- IC50 of cell viability: > 46 µM

Compound: CC(=O)Nc1ccccc1 [Acetanilide]
- IC50 of cell viability: > 46 µM

Compound: CC(=O)Nc1nnc([S+](N)(=O)[O-])s1 [Acetazolamide]
- IC50 of cell viability: > 46 µM

Compound: CC(=O)c1ccc([S+](=O)([O-])NC(=O)NC2CCCCC2)cc1 [Acetohexamide]
- IC50 of cell viability: > 46 µM

Compound: CC(C)=O [Acetone]
- IC50 of cell viability: > 46 µM

Compound: CC(=O)c1ccc2c(c1)N(CCCN(C)C)c1ccccc1S2 [Acetopromazine maleate salt]
- IC50 of cell viability: > 46 µM

Compound: CC(=O)OCC[N+](C)(C)C [Acetylcholine chloride]
- IC50 of cell viability: > 46 µM

Compound: CC(=O)Oc1ccccc1C(=O)O [Acetylsalicylic acid]
- IC50 of cell viability: > 46 µM

Compound: CCC(Cc1c(I)cc(I)c(O)c1I)C(=O)O (stereo not given) [Acide iophenoique]
- IC50 of cell viability: > 46 µM

Compound: O=C(O)c1ccc[n+]([O-])c1 [Acide oxiniacique]
- IC50 of cell viability: > 46 µM

Compound: O=P([O-])(O)C(O)(Cc1cccnc1)P(=O)([O-])O [Acide risedronique]
- IC50 of cell viability: > 46 µM

Other lines, results leading:

- IC50 of cell viability: > 46 µM
Compound: CCCC(CCC)C(=O)OC1C[C@H]2CC[C@@H](C1)[N+]2(C)C (stereo not given in full) [ANISOTROPINE METHYLBROMIDE]

- IC50 of cell viability: > 46 µM
Compound: OCC(O)C(O)C(O)CO (stereo not given) [ARABITOL(D)]

- IC50 of cell viability: > 46 µM
Compound: NCC[C@H](O)C(=O)N[C@@H]1C[C@H](N)[C@@H](O[C@H]2O[C@H](CN)CC[C@H]2N)[C@H](O)[C@H]1O[C@H]1O[C@H](CO)[C@@H](O)[C@H](N)[C@H]1O [ARBEKACIN SULFATE]

- IC50 of cell viability: > 46 µM
Compound: OCC1O[C@H](Oc2ccc(O)cc2)C(O)C(O)C1O (stereo not given in full) [ARBUTIN]

- IC50 of cell viability: > 46 µM
Compound: CC1CNc2c(cccc2S(=O)(=O)NC(CCCNC(=N)N)C(=O)N2CC[C@@H](C)C[C@@H]2C(=O)O)C1 (stereo not given in full) [ARGATROBAN]

- IC50 of cell viability: > 46 µM
Compound: COC(=O)C(Cc1ccccc1)NC(=O)C(N)CC(=O)O (stereo not given) [ASPARTAME]

- IC50 of cell viability: > 46 µM
Compound: CNC(=O)C[C@@H](N)C(=O)N[C@@H](C(=O)N[C@@H]1C(=O)N2[C@@H]1SC(C)(C)[C@@H]2C(=O)O)c1ccc(O)cc1 [ASPOXICILLIN]

- IC50 of cell viability: > 46 µM
Compound: CO[C@H]1[C@@H](O)[C@H](N)[C@@H](O[C@H]2O[C@@H]([C@H](C)N)CC[C@H]2N)[C@H](O)[C@@H]1N(C)C(=O)CN [ASTROMICIN SULPHATE]

- IC50 of cell viability: > 46 µM
Compound: OCC1OC([S][Au])[C@H](O)C(O)C1O (stereo not given in full) [AUROTHIOGLUCOSE]

- IC50 of cell viability: > 46 µM
Compound: CC(=O)O[C@H]1CC[C@]\2(C)C3CC[C@@]\4(C)C(C\C=C4C5=CC=CN=C5)C3C\C=C2C1 (stereo not given in full) [Abiraterone Acetate]

- IC50 of cell viability: > 46 µM
Compound: C[C@H]1OC(OC2C(O)[C@@H](O)C(OC3C(O)[C@@H](O)C(O)O[C@@H]3CO)O[C@@H]2CO)[C@H](O)C(O)C1N[C@H]1C=C(CO)[C@@H](O)[C@H](O)C1O (stereo not given in full) [Acarbose]

- IC50 of cell viability: > 46 µM
Compound: O=C(O)COC(=O)Cc1ccccc1Nc1c(Cl)cccc1Cl [Aceclofenac]

- IC50 of cell viability: > 46 µM
Compound: COc1ccc2c(c1)c(CC(=O)OCC(=O)O)c(C)n2C(=O)c1ccc(Cl)cc1 [Acemetacin]

- IC50 of cell viability: > 46 µM
Compound: CO[C@@H]1[C@@H](OC2OC(C)C(OC3CC(C)(O)C(O)C(C)O3)C(N(C)C)C2O)[C@@H](CC=O)C[C@@H](C)[C@@H](OC2CCC(N(C)C)C(C)O2)/C=C/C=C/C[C@@H](C)OC(=O)C[C@H]1OC(C)=O (stereo not given in full) [Acetyl Spiramycin]
